Source: patent US20210030700A1, “COMPOSITION FOR PREVENTING AND TREATMENT OF SPINAL CORD INJURY” (NEUROBIOGEN CO.,LTD, priority 2018, published 2021)

Assays:
Type in all cases: in vivo, Sprague-Dawley rats
spinal cord injury model [1] = assay: Immunofluorescence staining for macrophage marker CD68 and microglia marker Ibal; conditions: KDS2010-administered spinal cord injury model group
Procedure: (§1) The animal models of spinal cord injury herein used were adult male Sprague-Dawley rats weighing 180 to 200 g, and the rats were anesthetized by intraperitoneal injection of ketamine. Laminectomy was conducted on the T9 portion to expose the spinal cord, the spinal cord was compressed for 10 seconds using a dedicated forceps (self-closed forceps, Germany) to induce spinal cord injury, and then the muscles and skin were sutured.
When a spinal cord injury occurs, destroyed cells and cell clusters were observed inward from the injured site. These cells may cause an inflammatory reaction and interfere with regeneration from spinal cord injury. A test was conducted to investigate the effect of the drug KDS2010 on inflammatory reaction.
Specifically, the spinal cord injury model administered with KDS2010 was subjected to immunofluorescence staining to determine whether or not the cells were positive for the macrophage marker CD68 and the microglia marker Ibal.

[2] = tested on: spinal cord-injured rats and normal rats; assay: EC staining of the injured area (T9), myelination of spinal cord tissue
Procedure: as §1
(§2) Of the 50 spinal cord injury animal models in total, 5 were a non-drug-administered control group (Normal), 5 were a drug-administered control group (Normal/KDS2010), 20 were a non-drug-administered group subjected to spinal cord injury (SCI), and 20 were a drug-administered group subjected to spinal cord injury (SCI/KDS2010). 2 weeks after induction of spinal cord injury, a mixture of the drug and drinking water was administered at a dose of 10 mg/kg.
For EC staining (Eriochrome (Solochrome) cyanine staining), spinal cord tissue was obtained at 10 weeks after spinal cord injury, fixed with 4% paraformaldehyde, and dehydrated to perform freeze embedding. EC staining was performed on the injured area (thoracic vertebrae #9, T9) in 5 rats for the control group, 10 rats for the spinal cord-injured non-drug-administered group and 10 rats for the spinal cord-injured drug-administered group.
The EC staining is a staining method that can compare the areas of tissue and the myelinated part between groups because the myelinated part is stained in blue, whereas other nuclei, nerves, and non-myelinated parts appear in white.
EC staining was conducted on the injured area (thoracic vertebrae #9, T9) of the non-drug-administered control group, the drug-administered control group, the spinal cord-injured non-drug-administered group and the spinal cord-injured drug-administered group, in the same manner as in Example 1-4, and the results of myelinated parts were quantified.

spinal cord injury model [3] = assay: Toluidine blue (TB) staining and TEM imaging, re-myelination of spinal cord injury site; conditions: spinal cord injury model treated with KDS2010
Procedure: as §1
Specifically, the number of […], the number of cavities and a g-ratio were measured through toluidine blue (TB) staining and TEM imaging.

spinal cord injury model [4] = assay: BrdU immunofluorescence staining of spinal nerves, formation of new nerve cells; conditions: spinal cord injury model treated with KDS2010; BrdU 50 mg/kg/day i.p.
Procedure: as §1
A test to determine whether or not treatment with KDS2010 has an effect of inducing differentiation of new nerve cells was conducted in order to investigate the effect of spinal cord regeneration.
Specifically, BrdU was administered at a dose of 50 mg/kg/day to test animals by i.p. injection one week before scarification, and spinal nerves were subjected to immunofluorescence staining and then observed.

[5] = tested on: spinal cord-injured rats and normal rats; assay: Pain response evaluation using a dynamic plantar test
Procedure: The animal models of spinal cord injury herein used were adult male Sprague-Dawley rats weighing 180 to 200 g, and the rats were anesthetized by intraperitoneal injection of ketamine. Laminectomy was conducted on the T9 portion to expose the spinal cord, the spinal cord was compressed for 10 seconds using a dedicated forceps (self-closed forceps, Germany) to induce spinal cord injury, and then the muscles and skin were sutured. […]
A motor function test was performed 10 times in total weekly for 10 weeks after spinal cord injury, and the recovery of hindlimb function in the animals was evaluated using the Basso-Beattie-Bresnahan (BBB) motor score. […] In the first recovery phase, the degree of the joint movement and whether or not the soles contact the floor was checked, in the second recovery phase, the degree of recovery of weighted gait was monitored, and in the final stage, the balance of the gait and the recovery of the tail were mainly observed. […] At this time, the force applied when the sole withdrawal occurred due to pain was measured.
A pain relief degree was measured using a pain response evaluation based on a dynamic plantar test after administration of KDS2010 to spinal-cord-injured rats and normal rats in the same manner as in Example 1-3 above.

[6] = tested on: spinal cord-injured rats and normal rats; assay: Basso-Beattie-Bresnahan (BBB) locomotor rating behavior test
Procedure: as §1, §2
A motor function test was performed 10 times in total weekly for 10 weeks after spinal cord injury, and the recovery of hindlimb function in the animals was evaluated using the Basso-Beattie-Bresnahan (BBB) motor score. The BBB score is divided into 21 points in total, and is broadly classified into 3 steps. In the first recovery phase, the degree of the joint movement and whether or not the soles contact the floor was checked, in the second recovery phase, the degree of recovery of weighted gait was monitored, and in the final stage, the balance of the gait and the recovery of the tail were mainly observed. The neuropathic pain response test upon spinal cord injury was conducted through the measurement of a change in mechanical paw withdrawal using a dynamic plantar aesthesiometer and was conducted weekly for 3 weeks after the injury causing response to the soles. This test was conducted by applying a force of 0 to 50 g to the sole of the paw of the hindlimb using a needle with a diameter of 0.5 mm for 20 seconds. At this time, the force applied when the sole withdrawal occurred due to pain was measured.
A behavior test was performed using a Basso-Beattie-Bresnahan (BBB) locomotor rating system after administration of KDS2010 to spinal-cord-injured rats and normal rats in the same manner as in Example 1-3 above. The result of the behavior test was expressed as a BBB score.

[7] = SCI/KDS2010 vs SCI, 10 weeks after injury
[8] = drug-administered control group (Control/KDS2010), 10 weeks

`C[C@H](NCc1ccc(-c2ccc(C(F)(F)F)cc2)cc1)C(N)=O` [KDS2010, (S)-2-(((4′-trifluoromethylbiphenyl-4-yl)methyl)amino)propanamide methanesulfonate] was tested, and the “number of cells positive to CD68” value (spinal cord injury model [1]) was “significantly decreased”, the “number of cells positive to Ibal” value (spinal cord injury model [1]) was “significantly decreased” and the “total myelinated area compared to spinal cord-injured non-drug-administered group” value [2, 7] was “increased”. For the same molecule, the “total tissue area compared to spinal cord-injured non-drug-administered group” value [2, 7] was “increased”, the “proportion of the total myelinated area to the total tissue area” value [2, 8] was “large” and the total myelinated area [2, 8] was “large”. For the same molecule, the total tissue area [2, 8] was “large”, the number of cavities (spinal cord injury model [3]) was “rapidly decreased” and the “number of myelinated exons” value (spinal cord injury model [3]) was “recovered to an almost normal value”. For the same molecule, the g-ratio (spinal cord injury model [3]; normal range 0.79±0.0005) was “within the normal range”, the “formation of new nerve cells” value (spinal cord injury model [4]) was “exhibited newly formed nerve cells” and the “threshold value for pain compared to spinal cord-injured non-drug-administered group” value ([5]; SCI/KDS2010 vs SCI) was “significantly increased”. For the same molecule, the “threshold value for pain” value ([5]; drug-administered control group (Normal/KDS2010), normal rats) was “high threshold value”, the “gait and behavioral function in BBB test” value ([6]; SCI/KDS2010, last week (10 weeks after injury)) was “balanced gait and restored behavioral function” and the “BBB score compared to spinal cord-injured group not administered with the drug” value ([6]; SCI/KDS2010 vs SCI) was “significantly improved”. For the same molecule, the BBB score ([6]; drug-administered control group (Normal/KDS2010), normal rats, 10 mg/kg in drinking water) was 21 points and the BBB score ([6]; spinal cord-injured drug-administered group (SCI/KDS2010), 10 mg/kg in drinking water from 2 weeks after injury, starting at 5 weeks) was ≥ 10 points.
